# Data published in US11446304B2, “CDC-7-inhibitor compounds and use thereof for the treatment of neurological conditions” (CONSEJO SUPERIOR DE INVESTIGACIONES CIENTIFICAS (CSIC), priority 2017, dated 2022).
# Key:
# human recombinant CDC7 = target: T1, human recombinant CDC7 (Homo sapiens, UniProt O00311); experiment: CDC7 inhibition measurement (ADP-Glo technology); format: biochemical; details: ATP 10 μM, 60 min at room temperature; read-out: CDC7 ADP-Glo ™ CI50
# T1 construct: purchased Promega V5089
# T1 sequence (O00311 whole entry): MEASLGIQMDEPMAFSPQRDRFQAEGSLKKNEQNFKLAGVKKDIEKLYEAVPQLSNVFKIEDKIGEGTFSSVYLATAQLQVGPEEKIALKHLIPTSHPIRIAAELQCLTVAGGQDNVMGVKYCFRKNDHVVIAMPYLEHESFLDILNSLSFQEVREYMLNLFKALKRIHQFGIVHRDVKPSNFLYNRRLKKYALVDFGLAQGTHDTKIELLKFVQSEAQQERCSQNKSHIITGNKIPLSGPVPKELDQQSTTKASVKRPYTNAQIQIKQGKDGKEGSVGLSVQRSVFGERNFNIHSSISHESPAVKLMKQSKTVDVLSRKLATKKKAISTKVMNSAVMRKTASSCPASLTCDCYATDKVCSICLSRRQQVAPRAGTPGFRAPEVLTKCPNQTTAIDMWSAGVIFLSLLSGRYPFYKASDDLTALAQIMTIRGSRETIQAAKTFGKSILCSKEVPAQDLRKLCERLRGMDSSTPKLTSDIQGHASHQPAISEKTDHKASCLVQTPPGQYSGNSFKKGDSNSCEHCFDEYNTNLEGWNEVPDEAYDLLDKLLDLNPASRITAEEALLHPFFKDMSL
# T1 sequence (Q9UBU7 whole entry partner): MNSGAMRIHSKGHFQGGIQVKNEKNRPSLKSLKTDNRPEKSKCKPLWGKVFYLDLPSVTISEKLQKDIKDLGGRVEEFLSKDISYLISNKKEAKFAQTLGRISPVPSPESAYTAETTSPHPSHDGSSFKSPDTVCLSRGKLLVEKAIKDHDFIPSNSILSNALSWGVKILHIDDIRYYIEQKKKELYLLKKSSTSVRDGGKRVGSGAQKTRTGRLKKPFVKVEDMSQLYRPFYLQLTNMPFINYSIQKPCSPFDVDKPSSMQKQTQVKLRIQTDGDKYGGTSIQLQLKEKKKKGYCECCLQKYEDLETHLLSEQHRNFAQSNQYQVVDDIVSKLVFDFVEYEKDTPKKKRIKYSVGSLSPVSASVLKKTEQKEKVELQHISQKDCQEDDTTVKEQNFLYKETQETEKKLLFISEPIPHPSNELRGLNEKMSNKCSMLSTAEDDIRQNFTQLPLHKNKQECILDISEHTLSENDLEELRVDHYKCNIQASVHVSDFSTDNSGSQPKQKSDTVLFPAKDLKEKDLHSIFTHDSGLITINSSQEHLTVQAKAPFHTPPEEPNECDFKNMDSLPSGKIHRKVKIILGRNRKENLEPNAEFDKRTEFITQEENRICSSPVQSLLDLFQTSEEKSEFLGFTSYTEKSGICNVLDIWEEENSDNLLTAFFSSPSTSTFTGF
# Experimental: The method used is a non-radioactive enzyme inhibition assay using human recombinant CDC7. It is based on luminometric quantification of inhibition using the ADP-Glo™ Kinase Kit. In this test the luminescent signal correlates positively with the amount of adenosine diphosphate (ADP) and the activity of the kinase. […]
# CDC7 enzyme inhibition studies were conducted using the promega kit: ADP-Glo™ Kinase Assay+CDC7/DBF4 Kinase Enzyme System (Catalogue No. V5089). ATP and other reagents were purchased in Sigma-Aldrich (St. Louis, Mo.). The trials were performed in a buffer solution using 96-well plates. The compound to be tested (5 μL, 40 μM dissolved in DMSO 4%) was added to each well followed by the enzyme (5 μL, 25 ng/well), ATP (5 μL, final concentration in well 10 μM) and PDKtidE (5 μL, 4 μg/well). It was then incubated for 60 minutes at room temperature and the reagent ADP-Glo™ (20 μL) was added and incubated again for 40 min at room temperature. After incubation, the kinase detection agent (40 μL) was added and incubated for 30 min at room temperature. Finally, the luminescence (integration time of 0.5-1 sec) was measured using a POLARstar Optima multimode reader polarimeter. Inhibition activities were calculated as a function of maximum activity, measured in the absence of inhibitor.
# [1] = target: human recombinant CDC7/DBF4 (Homo sapiens, UniProt O00311); experiment: CDC7 inhibition measurement (LanthaScreen Eu kinase binding, FRET); details: CDC7/DBF4 0.5 nM, 60 min at room temperature; read-out: CDC7 Lantha ™ CI50
# Sequence of human recombinant CDC7/DBF4 (O00311 whole entry): as the sequence (O00311 whole entry) above
# Sequence of human recombinant CDC7/DBF4 (Q9UBU7 whole entry partner): as the sequence (Q9UBU7 whole entry partner) above
# From the text: The LanthaScreen Eu kinases inhibition assay uses an Alexa marker Fluor™ that binds to a kinase and is detected by the addition of an Eu-marked antibody. The binding of the marker and the antibody to the kinase results in a high degree of FRET, while the displacement of the marker by an inhibitor results in a loss of FRET. Unlike many other kinase activity tests, this is a simple mix and read test, with no developmental stages. This test method has been developed by Life Technologies and identifies competitive ATP kinase inhibitors, making them suitable for the detection of any compound that binds to the ATP site.
# The compounds are evaluated at 1% DMSO (final) in the well. A mixture of human recombinant CDC7/DBF4 (0.5 nM), Eu-antiGST antibody (2 nM) and AlexaFluor marker (1 nM) has been used in a buffer of 50 mM HEPES pH 7.5, 0.01% BRIJ-35, 10 mM MgCl2, 1 mM EGTA in white plates of […], low volume, coded (Greiner cat. #784207), 160 nL (100×100% DMSO compound), 3.84 μL (buffer with CDC7/DBF4), 8.0 μL (antibody), 4.0 μL (marker) are added. Agitate 30 s and incubate at room temperature for 60 min. Then measure the fluorescence in the plate reader and analyze the data (Table 1).
# [2] = PAMPA blood-brain barrier permeation (porcine brain lipid); format: in vitro ADME; details: for Papp at 2.5 h: PAMPA-BHE, PBS pH 7.4/EtOH 70:30, 2 h 30 min at 25° C., mean ± SD, read-out: Pe; for PAMPA prediction of central nervous system (CNS) penetration: from Pe in PAMPA-BHE
# From the text: An essential requirement for drugs for the treatment of neurodegenerative diseases is the ability to cross the blood-brain barrier (BBB), as otherwise they could not act on the target of interest. Therefore, for compounds that are not permeable or located in the area of uncertainty, it may be necessary to properly convey a pharmaceutical formulation through methods known to an expert in the field, such as encapsulation. This capability can be predicted in vitro using a method known by the acronym PAMPA (Parallel Artificial Membrane Permeability Assay) described by Di et al (Di, L.; Kerns, E. H.; Fan, K.; McConnell, O. J.; Carter, G. T. Eur. J. Med. Chem. 2003, 38 (3), 223-232) and which has subsequently been fine-tuned in our research group. This method allows predicting the effective permeability through artificial membranes by means of a passive diffusion process.
# First of all, it is necessary to validate the method, for which 10 commercial compounds are used whose penetration capacity in the central nervous system (CNS) is known and which are to be specified below, obtaining in this case a good linear correlation between the experimental permeability values (Pe) and those described (FIG. 1). This correlation line obtained following the pattern described in the bibliography allows establishing the limits to predict whether or not a compound can cross the blood-brain barrier. Thus, a compound is considered BBB permeable (SNC+) if it has a permeability>4.48×10^−6 cm-s^−1.
# For the procedure, between 3-5 mg of caffeine, desipramine, enoxacin, hydrocortisone, ofloxacin, piroxicam and testosterone, 12 mg of promazine and 25 mg of atenolol and verapamil were taken and dissolved in EtOH (1000 μL). 100 μL of these solutions were taken and EtOH (1400 μL) and phosphate buffer (PBS) pH=7.4 (3500 μL) were added in order to achieve a final EtOH concentration of 30% v/v in solution. Finally, the dissolutions were filtered.
# On the other hand, a PBS/EtOH solution (70:30) was added to each well of the acceptance plate (180 μL). The donor plate was impregnated with a porcine brain lipid solution (4 μL) dissolved in dodecane (20 mg mL^−1). After 5 min, dissolution of each compound was added to this plate (180 μL).
# Of the compounds 1 to 10 evaluated, 1-2 mg were taken and dissolved in EtOH (1500 μL) and phosphate buffer (PBS) pH=7.4 (3500 μL), filtered and added to the donor plate. With these solutions, the wavelengths at which the compounds absorb are determined and the initial absorbance levels at these wavelengths are measured using a UV absorbance reader. Each sample was analyzed from two to five wavelengths, in three wells and in two independent experiments.
# The donor plate was then deposited on the acceptor forming a kind of “sandwich” and incubated for 2 hours and 30 minutes at 25° C. In this way, the compounds will pass from the donor plate to the acceptor plate through the porcine brain lipid by passive diffusion. After that time, the donor plate is carefully removed and the concentration and final absorbance of both commercial and synthesized compounds is determined. The results obtained are expressed as the mean of the measurements [standard deviation (SD)] of the different experiments carried out and are shown in table 2.
Compound,IC50 (human recombinant CDC7),IC50 [1],melting point,Papp at 2.5 h [2],PAMPA prediction of central nervous system (CNS) penetration [2]
"c1ccc2c(CSc3ncnc4[nH]cnc34)cccc2c1 [Compound 2, 6-((Naphthalene-1-ylmethyl)thio)-9H-purine]",11200 ± 840 nM,347 nM,221 to 222 °C,13.2 ± 2 ×10⁻⁶ cm/s,SNC+ (a compound is considered BBB permeable (SNC+) if it has a permeability>4.48×10^−6 cm-s^−1)
"FC(F)(F)c1ccccc1CSc1ncnc2[nH]cnc12 [Compound 4, 6-((2-(trifluoromethyl)benzyl)thio)-9H-purine]",9730 ± 1030 nM,245 nM,,17.5 ± 0.9 ×10⁻⁶ cm/s,SNC+ (a compound is considered BBB permeable (SNC+) if it has a permeability>4.48×10^−6 cm-s^−1)
"Clc1cccc(COc2ncnc3[nH]cnc23)c1 [Compound 6, 6-((3-chlorobenzyl)oxy)-9H-purine]",8980 ± 210 nM,194 nM,197 to 199 °C,7.2 ± 0.6 ×10⁻⁶ cm/s,SNC+ (a compound is considered BBB permeable (SNC+) if it has a permeability>4.48×10^−6 cm-s^−1)
"Brc1ccc(CSc2[nH]cnc3ncnc2-3)cc1 [Compound 12, 6-((4-bromobenzyl)thio)-9H-purine]",9140 ± 790 nM,,,11.5 ± 0.7 ×10⁻⁶ cm/s,SNC+ (a compound is considered BBB permeable (SNC+) if it has a permeability>4.48×10^−6 cm-s^−1)
"CCOC(=O)c1ccccc1CSc1ncnc2[nH]cnc12 [Compound 16, Ethyl 2-(((9H-Purine-6-yl)thio)methyl)benzoate]",,2790 nM,145 to 147 °C,9.7 ± 1.4 ×10⁻⁶ cm/s,SNC+ (a compound is considered BBB permeable (SNC+) if it has a permeability>4.48×10^−6 cm-s^−1)
"O=[N+]([O-])c1ccc(CSc2ncnc3[nH]cnc23)cc1 [Compound 17, 6-((4-nitrobenzyl)thio)-9H-purine]",,127 nM,,5.5 ± 1.3 ×10⁻⁶ cm/s,SNC+ (a compound is considered BBB permeable (SNC+) if it has a permeability>4.48×10^−6 cm-s^−1)
"CC(=O)Nc1ccc(CSc2ncnc3[nH]cnc23)cc1 [Compound 18, 6-((4-Acetamidobenzyl)thio)-9H-purine]",,,223 to 225 °C,,
"N#Cc1ccc(CSc2ncnc3[nH]cnc23)cc1 [Compound 19, 6-((4-Cyanobenzyl)thio)-9H-purine]",,,228 to 230 °C,2 ± 0.7 ×10⁻⁶ cm/s,SNC+/−
"c1ccc(COc2[nH]cnc3ncnc2-3)cc1 [Compound 20, 6-((benzyl)oxy)-9H-purine]",,167 nM,,2.9 ± 0.9 ×10⁻⁶ cm/s,SNC+/−
"Brc1ccc(COc2ncnc3[nH]cnc23)cc1 [Compound 21, 6-((4-Bromobenzyl)oxy)-9H-purine]",,,,14 ± 1.4 ×10⁻⁶ cm/s,SNC+ (a compound is considered BBB permeable (SNC+) if it has a permeability>4.48×10^−6 cm-s^−1)
"FC(F)(F)c1ccc(CSc2ncnc3[nH]cnc23)cc1 [Compound 22, 6-(4-(trifluoromethyl)benzylthio)-9H-purine]",,367 nM,,13.5 ± 1.6 ×10⁻⁶ cm/s,SNC+ (a compound is considered BBB permeable (SNC+) if it has a permeability>4.48×10^−6 cm-s^−1)
"CSc1ccc(CSc2ncnc3[nH]cnc23)cc1 [Compound 23, 6-((4-(Methylthio)benzyl)thio)-9H-purine]",,146 nM,203 to 205 °C,17.8 ± 0.7 ×10⁻⁶ cm/s,SNC+ (a compound is considered BBB permeable (SNC+) if it has a permeability>4.48×10^−6 cm-s^−1)

# Now from value to compound, other results behind:
IC50 (human recombinant CDC7),IC50 [1],melting point,Papp at 2.5 h [2],Compound,PAMPA prediction of central nervous system (CNS) penetration [2]
8380 ± 270 nM,335 nM,189 to 191 °C,2.3 ± 0.2 ×10⁻⁶ cm/s,N#Cc1cccc(CSc2ncnc3[nH]cnc23)c1 [Compound 3],SNC+/−
8460 ± 1050 nM,184 nM,198 to 200 °C,12.2 ± 1.2 ×10⁻⁶ cm/s,"Clc1ccc(CSc2ncnc3[nH]cnc23)cc1 [Compound 5, 6-((4-chlorobenzyl)thio)-9H-purine]",SNC+ (a compound is considered BBB permeable (SNC+) if it has a permeability>4.48×10^−6 cm-s^−1)
6900 ± 830 nM,,180 to 182 °C,16.3 ± 0.6 ×10⁻⁶ cm/s,"FC(F)(F)c1cccc(CSc2ncnc3[nH]cnc23)c1 [Compound 7, 6-((3-(trifluoromethyl)benzyl)thio)-9H-purine]",SNC+ (a compound is considered BBB permeable (SNC+) if it has a permeability>4.48×10^−6 cm-s^−1)
6540 ± 320 nM,,193 to 195 °C,3.9 ± 0.4 ×10⁻⁶ cm/s,"O=[N+]([O-])c1cccc(CSc2ncnc3[nH]cnc23)c1 [Compound 10, 6-((3-nitrobenzyl)thio)-9H-purine]",SNC+/−
5290 ± 710 nM,138 nM,,,"Brc1cccc(CSc2ncnc3[nH]cnc23)c1 [Compound 11, 6-((3-bromobenzyl)thio)-9H-purine]",
,92 nM,200 to 202 °C,18.1 ± 1.2 ×10⁻⁶ cm/s,"Clc1ccccc1CSc1ncnc2[nH]cnc12 [Compound 14, 6-((2-Chlorobenzyl)thio)-9H-purine]",SNC+ (a compound is considered BBB permeable (SNC+) if it has a permeability>4.48×10^−6 cm-s^−1)
,,,5.3 ± 0.8 ×10⁻⁶ cm/s,"COc1cccc(CSc2ncnc3[nH]cnc23)c1 [Compound 15, 6-((3-methoxybenzyl)thio)-9H-purine]",SNC+ (a compound is considered BBB permeable (SNC+) if it has a permeability>4.48×10^−6 cm-s^−1)
